Values joined by “and” are separate entries in the source; they are usually repeats but may differ in a detail not shown here. Equal values may be shown once. Where a name gives a salt, the structure may show the parent alone.
Columns and labels:
D1 [1] = target: T1, D1 (Homo sapiens, UniProt P21728); experiment: D1 cAMP HTRF assay (HEK293T/hD1#1 stable cell line); type: cell-based; design: expressed in transfected cells
Description: This assay was used to determine the ability of a test compound to agonize (including partially agonize) D1. A Mab anti-cAMP labeled Cryptate visualizes the tracer. […] The signal, therefore, is inversely proportional to the concentration of cAMP in the sample.
The cAMP Dynamic kit was obtained from Cisbio International (Cisbio 62AM4PEJ). Multidrop Combi (Thermo Scientific) was used for assay additions. Envision (PerkinElmer) reader was used to read HTRF.
A HEK293T/hD1#1 stable cell line was constructed internally (Pfizer Ann Arbor). […] One mL aliquots of the cells were made in Cryo-vials and frozen at −80° C. for future use in the D1 HTRF assay.
Frozen cells were quickly thawed, re-suspended in 50 mL warm media and allowed to sit for 5 min prior to centrifugation (1000 rpm) at room temperature. Media was removed and cell pellet was re-suspended in PBS/0.5 μM IBMX generating 2e5 cells/mL. […] Cells and compounds were incubated at room temperature for 30 min. Working solutions of cAMP-D2 and anti-cAMP-cryptate were prepared according to Cisbio instructions. Using Multidrop, 5 μL cAMP-D2 working solution was added to the assay plate containing the test compound and cells. Using Multidrop, 5 μL anti-cAMP-cryptate working solutions was added to assay plate containing test compound, cells and cAMP-D2. Assay plate was incubated for 1 hour at room temperature. Assay plate was read on Envision plate reader using Cisbio recommended settings. A cAMP standard curve was generated using cAMP stock solution provided in the Cisbio kit.
Data analysis was done using computer software. Percent effects were calculated from the compound controls. Ratio EC50 was determined using the raw ratio data from the Envision reader. The cAMP standard curve was used in an analysis program to determine cAMP concentrations from raw ratio data. cAMP EC50 was determined using the calculated cAMP data.

D1 [2] = target: T1, D1; experiment: Human D1 receptor binding assay ([3H]-SCH23390 competition); details: Human D1 Receptor Binding, Ki (nM), Geometric mean of 2-4 determinations, a: >=5 determinations, d: single determination
Description: D1 binding assays were performed using over-expressing LTK human cell lines. […] These ligand and tissue concentrations were used in time course studies to determine linearity and equilibrium conditions for binding. Binding was at equilibrium with the specified amount of tissue in 30 minutes at 37° C. […] The pellet was resuspended in assay buffer (50 mM Tris (pH 7.4@ RT) containing 4 mM MgSO4 and 0.5 mM EDTA). […] After a 30 minute incubation period at 37° C., assay samples were rapidly filtered through Unifilter-96 GF/B PEI-coated filter plates and rinsed with 50 mM Tris buffer (pH 7.4 at 4° C.). […] Ki values were calculated according to the Cheng-Prusoff equation.

T1 sequence (P21728 whole entry): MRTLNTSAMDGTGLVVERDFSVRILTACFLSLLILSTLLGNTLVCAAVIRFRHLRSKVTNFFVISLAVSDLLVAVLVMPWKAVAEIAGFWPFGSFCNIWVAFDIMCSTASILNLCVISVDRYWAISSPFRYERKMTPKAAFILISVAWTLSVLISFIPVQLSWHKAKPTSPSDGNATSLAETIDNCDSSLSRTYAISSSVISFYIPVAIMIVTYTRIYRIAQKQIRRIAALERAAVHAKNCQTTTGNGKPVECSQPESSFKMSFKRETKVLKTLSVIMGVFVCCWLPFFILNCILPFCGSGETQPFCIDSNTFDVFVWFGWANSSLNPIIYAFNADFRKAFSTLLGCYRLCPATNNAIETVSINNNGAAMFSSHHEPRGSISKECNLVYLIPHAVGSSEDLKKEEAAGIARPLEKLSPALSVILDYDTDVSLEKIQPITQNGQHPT

Compound	EC50 (D1 [1])	Ki (D1 [2]) [nM]
CN(Cc1ccccn1)Cc1cc(Oc2nccc3occc23)ccc1-c1cccc2nccn12 [Example 50, 1-[5-(furo[3,2-c]pyridin-4-yloxy)-2-(imidazo[1,2-a]pyridin-5-yl)phenyl]-N-methyl-N-(pyridin-2-ylmethyl)methanamine, trifluoroacetate salt]	1130 nM	55.1
COc1cc(Oc2nccc3occc23)ccc1-c1c(C)ccnc1C#N [Example 51, 3-[4-(furo[3,2-c]pyridin-4-yloxy)-2-methoxyphenyl]-4-methylpyridine-2-carbonitrile, trifluoroacetate salt]	799 nM and 1220 nM	61.7
Cc1cc(Oc2nccc3occc23)ccc1-c1cccnc1C [Example 52, 4-[3-methyl-4-(2-methylpyridin-3-yl)phenoxy]furo[3,2-c]pyridine]	463 nM	53
Cc1cc(Oc2nccc3occc23)ccc1-c1nc(N)cnc1C [Example 53, 6-[4-(furo[3,2-c]pyridin-4-yloxy)-2-methylphenyl]-5-methylpyrazin-2-amine, trifluoroacetate salt]	953 nM	173
FC(F)(F)c1cc(Oc2nccc3occc23)ccc1-c1cccc2nccn12 [Example 54, 4-[4-(imidazo[1,2-a]pyridin-5-yl)-3-(trifluoromethyl)phenoxy]furo[3,2-c]pyridine]	243 nM	10.2
Cc1cc(Oc2nccc3occc23)ccc1-c1cncnc1C [Example 58, 4-[3-methyl-4-(4-methylpyrimidin-5-yl)phenoxy]furo[3,2-c]pyridine]	900 nM and 1110 nM	160
Cc1cc(Oc2nccc3occc23)ccc1-c1cccc2[nH]c(=O)ccc12 [Example 59, 5-[4-(furo[3,2-c]pyridin-4-yloxy)-2-methylphenyl]quinolin-2(1H)-one]	1010 nM and 1150 nM	103
COc1ccc(-c2ccc(Oc3nccc4occc34)cc2C)c(C)n1 [Example 60, 4-[4-(6-methoxy-2-methylpyridin-3-yl)-3-methylphenoxy]furo[3,2-c]pyridine, trifluoroacetate salt]	2910 nM and 1040 nM	178
Cc1nccnc1-c1ccc(Oc2nccc3occc23)cc1OCCCN(C)C [Example 61, 3-[5-(furo[3,2-c]pyridin-4-yloxy)-2-(3-methylpyrazin-2-yl)phenoxy]-N,N-dimethylpropan-1-amine, formate salt]	1110 nM and 811 nM	228
Cc1cc(Oc2nccc3occc23)ccc1-c1c(C)ncnc1N [Example 63, 5-[4-(furo[3,2-c]pyridin-4-yloxy)-2-methylphenyl]-6-methylpyrimidin-4-amine]	1350 nM and 843 nM	210
Cc1ncc2nccn2c1-c1ccc(Oc2nccc3occc23)cc1F [Example 65, 5-[2-fluoro-4-(furo[3,2-c]pyridin-4-yloxy)phenyl]-6-methylimidazo[1,2-a]pyrazine]	193 nM and 300 nM	61.1
Cc1nccnc1-c1ccc(Oc2nccc3occc23)cc1OCc1c(C)noc1C [Example 66, 4-{3-[(3,5-dimethyl-1,2-oxazol-4-yl)methoxy]-4-(3-methylpyrazin-2-yl)phenoxy}furo[3,2-c]pyridine, formate salt]	737 nM	85.4
Cc1cccnc1COc1cc(Oc2nccc3occc23)ccc1-c1nccnc1C [Example 68, 4-{4-(3-methylpyrazin-2-yl)-3-[(3-methylpyridin-2-yl)methoxy]phenoxy}furo[3,2-c]pyridine, formate salt]	1480 nM	154
Cc1ncnc(C)c1-c1ccc(Oc2nccc3occc23)cc1F [Example 69, 4-[4-(4,6-dimethylpyrimidin-5-yl)-3-fluorophenoxy]furo[3,2-c]pyridine]	201 nM and 203 nM	77.7
Cc1ncnc(C#N)c1-c1ccc(Oc2nccc3occc23)cc1F [Example 70, 5-[2-fluoro-4-(furo[3,2-c]pyridin-4-yloxy)phenyl]-6-methylpyrimidine-4-carbonitrile]	424 nM and 1020 nM	124
COc1cc(Oc2nccc3occc23)ccc1-c1c(C)ncnc1C [Example 71, 4-[4-(4,6-dimethylpyrimidin-5-yl)-3-methoxyphenoxy]furo[3,2-c]pyridine]	298 nM and 965 nM	50.5
Cc1ncnc(C)c1-c1ccc(Oc2nccc3occc23)cc1O [Example 72, 2-(4,6-dimethylpyrimidin-5-yl)-5-(furo[3,2-c]pyridin-4-yloxy)phenol]	989 nM	91.4
Cc1ncccc1-c1ccc(Oc2nccc3occc23)cc1OCCCN(C)C [Example 73, 3-[5-(furo[3,2-c]pyridin-4-yloxy)-2-(2-methylpyridin-3-yl)phenoxy]-N,N-dimethylpropan-1-amine, formate salt]	748 nM and 966 nM	37.7
COc1ncnc(C)c1-c1ccc(Oc2nccc3occc23)cc1F [Example 76, 4-[3-fluoro-4-(4-methoxy-6-methylpyrimidin-5-yl)phenoxy]furo[3,2-c]pyridine]	903 nM and 2170 nM	139
Cc1cc(Oc2nccc3occc23)ccc1-c1c(C)ncc2nc(C(F)(F)F)cn12 [Example 80, 5-[4-(furo[3,2-c]pyridin-4-yloxy)-2-methylphenyl]-6-methyl-2-(trifluoromethyl)imidazo[1,2-a]pyrazine]	1200 nM and 987 nM	6.13
CNc1ncnc(C)c1-c1ccc(Oc2nccc3occc23)cc1C [Example 81, 5-[4-(furo[3,2-c]pyridin-4-yloxy)-2-methylphenyl]-N,6-dimethylpyrimidin-4-amine]	1770 nM	270
Cc1cc(Oc2nccc3occc23)ccc1-c1c(C)nc(N)nc1C#N [Example 84, 2-amino-5-[4-(furo[3,2-c]pyridin-4-yloxy)-2-methylphenyl]-6-methylpyrimidine-4-carbonitrile]	360 nM	116
Cc1cc(Oc2nccc3occc23)ccc1-c1c(C)nc2cnccn12 [Example 85, 3-[4-(furo[3,2-c]pyridin-4-yloxy)-2-methylphenyl]-2-methylimidazo[1,2-a]pyrazine]	1120 nM and 4880 nM	75.3
Cc1cc(Oc2nccc3occc23)ccc1-c1cc(N)cnc1C [Example 86, 5-[4-(furo[3,2-c]pyridin-4-yloxy)-2-methylphenyl]-6-methylpyridin-3-amine]	833 nM and 4870 nM	113

More lines, in order of falling Ki (D1 [2]), values ahead:

EC50 (D1 [1])	Ki (D1 [2]) [nM]	Compound
> 29900 nM	244	Cc1cc(N(C)c2nccc3occc23)ccc1-c1cccc2nccn12 [Example 55, N-[4-(imidazo[1,2-a]pyridin-5-yl)-3-methylphenyl]-N-methylfuro[3,2-c]pyridin-4-amine]
2550 nM and 1680 nM	140	Cc1nc(O)nc(C)c1-c1ccc(Oc2nccc3occc23)cc1 [Example 79, 5-[4-(furo[3,2-c]pyridin-4-yloxy)phenyl]-4,6-dimethylpyrimidin-2-ol]
3680 nM	121	CC(NCc1cc(Oc2nccc3occc23)ccc1-c1cccc2nccn12)c1cncs1 (centres unmarked) [Example 49, N-[5-(furo[3,2-c]pyridin-4-yloxy)-2-(imidazo[1,2-a]pyridin-5-yl)benzyl]-1-(1,3-thiazol-5-yl)ethanamine, trifluoroacetate salt]
633 nM and 435 nM	98.7	Cc1cc(Oc2nccc3occc23)ccc1-c1ccc(N)nc1C [Example 56, 5-[4-(furo[3,2-c]pyridin-4-yloxy)-2-methylphenyl]-6-methylpyridin-2-amine]
885 nM and 1230 nM	48.3	CCc1noc(COc2cc(Oc3nccc4occc34)ccc2-c2cccnc2C)n1 [Example 78, 4-{3-[(3-ethyl-1,2,4-oxadiazol-5-yl)methoxy]-4-(2-methylpyridin-3-yl)phenoxy}furo[3,2-c]pyridine]
200 nM and 674 nM	45.6	Cc1ncnc(C)c1-c1ccc(Oc2nccc3occc23)cc1 [Example 77, 4-[4-(4,6-dimethylpyrimidin-5-yl)phenoxy]furo[3,2-c]pyridine]
600 nM and 482 nM	22.5	Cc1cc(Oc2nccc3occc23)ccc1-c1c(C)ncnc1N(C)C [Example 87, 5-[4-(furo[3,2-c]pyridin-4-yloxy)-2-methylphenyl]-N,N,6-trimethylpyrimidin-4-amine]
364 nM	21.6	Cc1cc(Oc2nccc3occc23)ccc1-c1c(C)nc(N)nc1C [Example 75, 5-[4-(furo[3,2-c]pyridin-4-yloxy)-2-methylphenyl]-4,6-dimethylpyrimidin-2-amine]
116 nM	17.4	Cc1ncc2nccn2c1-c1ccc(Oc2nccc3occc23)cc1O [Example 57, 5-(furo[3,2-c]pyridin-4-yloxy)-2-(6-methylimidazo[1,2-a]pyrazin-5-yl)phenol]
134 nM	12.1	CCc1cc(Oc2nccc3occc23)ccc1-c1c(C)ncc2nccn12 [Example 64, 5-[2-ethyl-4-(furo[3,2-c]pyridin-4-yloxy)phenyl]-6-methylimidazo[1,2-a]pyrazine]

From US20150291625A1 (PFIZER INC., priority 2012, published 2015)
